Results reported in PMC6979384, “Characterization of the plant homeodomain (PHD) reader family for their histone tail interactions” (Epigenetics & Chromatin, 2020).

Assays:
Assay in all cases: Histone peptide microarray
Assay type in all cases: binding, human
Conditions in all cases: arrays performed twice
CHD5 (PCC) = tested on: CHD5 (PCC)
In short: (§1)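 Steps: express and purify GST-tagged PHD reader; incubate 0.5 μM protein on a peptide microarray (293 histone peptides, single or combined PTMs) following an optimized protocol; average signal across 4 replicates.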

KDM4C (TTP) = tested on: KDM4C (TTP)
In short: as §1

ING2 = tested on: ING2
In short: as §1

MORC3 (CW) = tested on: MORC3 (CW)
In short: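 Purified PHD finger domains fused to GST are screened against 293 synthetic histone peptides bearing one or several post-translational modifications. The protein is used at 0.5 μM, and the signal from four replicate arrays is averaged, with standard deviation given.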

CHD4 (PPCC) = tested on: CHD4 (PPCC)
In short: as §1

PHRF1 (RP) = tested on: PHRF1 (RP)
In short: as §1

BAZ2B = tested on: BAZ2B
In short: as §1

MLL5 = tested on: MLL5
In short: as §1

KDM5B (1) = tested on: KDM5B (1)
In short: as §1

RAG2 = tested on: RAG2
In short: as §1

ING4 = tested on: ING4
In short: as §1

KDM5A (3) = tested on: KDM5A (3)
In short: as §1

KDM5A (1) = tested on: KDM5A (1)
In short: as §1

PHF23 = tested on: PHF23
In short: as §1

DPF2 (PPC2W2) = tested on: DPF2 (PPC2W2)
In short: as §1

KDM7A = tested on: KDM7A
In short: as §1

ING1 = tested on: ING1
In short: as §1

CHD5 (PPCC) = tested on: CHD5 (PPCC)
In short: as §1

PHF8 = tested on: PHF8
In short: as §1

PHF2 = tested on: PHF2
In short: as §1

KDM5B (3) = tested on: KDM5B (3)
In short: as §1

ING5 = tested on: ING5
In short: as §1

BPTF (PB) = tested on: BPTF (PB)
In short: as §1

PHF21A = tested on: PHF21A
In short: as §1

AIRE (PP) = tested on: AIRE (PP)
In short: as §1

DIDO1 = tested on: DIDO1
In short: as §1

SP140L = tested on: SP140L
In short: as §1

ING3 = tested on: ING3
In short: as §1

TAF3 = tested on: TAF3
In short: as §1

TRIM66 (PB) = tested on: TRIM66 (PB)
In short: as §1

PHF13 = tested on: PHF13
In short: as §1

[1] = sheet "Array Heatmap", GST-tagged CHD5 (PCC), total replicate number n = 4
[2] = sheet "Array Heatmap", GST-tagged KDM4C (TTP), total replicate number n = 4
[3] = sheet "Array Heatmap", GST-tagged ING2, total replicate number n = 4
[4] = sheet "Array Heatmap", GST-tagged MORC3 (CW), total replicate number n = 4
[5] = sheet "Array Heatmap", GST-tagged CHD4 (PPCC), total replicate number n = 4
[6] = sheet "Array Heatmap", GST-tagged PHRF1 (RP), total replicate number n = 4
[7] = sheet "Array Heatmap", GST-tagged BAZ2B, total replicate number n = 4
[8] = sheet "Array Heatmap", GST-tagged MLL5, total replicate number n = 4
[9] = sheet "Array Heatmap", GST-tagged KDM5B (1), total replicate number n = 4
[10] = sheet "Array Heatmap", GST-tagged RAG2, total replicate number n = 4
[11] = sheet "Array Heatmap", GST-tagged ING4, total replicate number n = 4
[12] = sheet "Array Heatmap", GST-tagged KDM5A (3), total replicate number n = 4
[13] = sheet "Array Heatmap", GST-tagged KDM5A (1), total replicate number n = 4
[14] = sheet "Array Heatmap", GST-tagged PHF23, total replicate number n = 4
[15] = sheet "Array Heatmap", GST-tagged DPF2 (PPC2W2), total replicate number n = 4
[16] = sheet "Array Heatmap", GST-tagged KDM7A, total replicate number n = 4
[17] = sheet "Array Heatmap", GST-tagged ING1, total replicate number n = 4
[18] = sheet "Array Heatmap", GST-tagged CHD5 (PPCC), total replicate number n = 4
[19] = sheet "Array Heatmap", GST-tagged PHF8, total replicate number n = 4
[20] = sheet "Array Heatmap", GST-tagged PHF2, total replicate number n = 4
[21] = sheet "Array Heatmap", GST-tagged KDM5B (3), total replicate number n = 4
[22] = sheet "Array Heatmap", GST-tagged ING5, total replicate number n = 4
[23] = sheet "Array Heatmap", GST-tagged BPTF (PB), total replicate number n = 4
[24] = sheet "Array Heatmap", GST-tagged PHF21A, total replicate number n = 4
[25] = sheet "Array Heatmap", GST-tagged AIRE (PP), total replicate number n = 4
[26] = sheet "Array Heatmap", GST-tagged DIDO1, total replicate number n = 4
[27] = sheet "Array Heatmap", GST-tagged SP140L, total replicate number n = 4
[28] = sheet "Array Heatmap", GST-tagged ING3, total replicate number n = 4
[29] = sheet "Array Heatmap", GST-tagged TAF3, total replicate number n = 4
[30] = sheet "Array Heatmap", GST-tagged TRIM66 (PB), total replicate number n = 4
[31] = sheet "Array Heatmap", GST-tagged PHF13, total replicate number n = 4
[32] = histone peptide array, GST-tagged reader, n of 4
[33] = histone peptide array, GST-tagged reader, PPCC = Dual PHD + Dual Chromodomain, n of 4
[34] = histone peptide array, GST-tagged reader, PB = PHD + Bromodomain, n of 4

## H3K4ac + K9me1 + K14ac + K18ac: H3 1-20
CHD5 (PCC); [1]
  Array Heatmap signal, CHD5 (PCC): 0.8198
KDM4C (TTP); [2]
  Array Heatmap signal, KDM4C (TTP): 0.5174
ING2; [3]
  Array Heatmap signal, ING2: 0.5869
MORC3 (CW); [4]
  Array Heatmap signal, MORC3 (CW): 0.3311
CHD4 (PPCC); [5]
  Array Heatmap signal, CHD4 (PPCC): 0.5629
PHRF1 (RP); [6]
  Array Heatmap signal, PHRF1 (RP): 0.3692
BAZ2B; [7]
  Array Heatmap signal, BAZ2B: 0.5783
MLL5; [8]
  Array Heatmap signal, MLL5: 0.5142
KDM5B (1); [9]
  Array Heatmap signal, KDM5B (1): 0.6293
RAG2; [10]
  Array Heatmap signal, RAG2: 0.2267
ING4; [11]
  Array Heatmap signal, ING4: 0.4584
KDM5A (3); [12]
  Array Heatmap signal, KDM5A (3): 0.3935
KDM5A (1); [13]
  Array Heatmap signal, KDM5A (1): 0.4805
PHF23; [14]
  Array Heatmap signal, PHF23: 0.4792
DPF2 (PPC2W2); [15]
  Array Heatmap signal, DPF2 (PPC2W2): 0.6154
KDM7A; [16]
  Array Heatmap signal, KDM7A: 0.4836
ING1; [17]
  Array Heatmap signal, ING1: 0.4555
CHD5 (PPCC); [18]
  Array Heatmap signal, CHD5 (PPCC): 0.5431
PHF8; [19]
  Array Heatmap signal, PHF8: 0.3261
PHF2; [20]
  Array Heatmap signal, PHF2: 0.368
KDM5B (3); [21]
  Array Heatmap signal, KDM5B (3): 0.497
ING5; [22]
  Array Heatmap signal, ING5: 0.3469
BPTF (PB); [23]
  Array Heatmap signal, BPTF (PB): 0.3424
PHF21A; [24]
  Array Heatmap signal, PHF21A: 0.4512
AIRE (PP); [25]
  Array Heatmap signal, AIRE (PP): 0.5251
DIDO1; [26]
  Array Heatmap signal, DIDO1: 0.5412
SP140L; [27]
  Array Heatmap signal, SP140L: 0.3469
ING3; [28]
  Array Heatmap signal, ING3: 0.4265
TAF3; [29]
  Array Heatmap signal, TAF3: 0.2619
TRIM66 (PB); [30]
  Array Heatmap signal, TRIM66 (PB): 0.5413
PHF13; [31]
  Array Heatmap signal, PHF13: 0.5879

## H4 (1-24): H4 1-24
CHD5 (PCC); histone peptide array, GST-tagged reader, PCC = PHD + Dual Chromodomain, n of 4
  Array Heatmap signal, CHD5 (PCC): 0.7379
KDM4C (TTP); histone peptide array, GST-tagged reader, TTP = Tandem Tudor domain + PHD, n of 4
  Array Heatmap signal, KDM4C (TTP): 0.4748
ING2; [32]
  Array Heatmap signal, ING2: 0.5969
MORC3 (CW); histone peptide array, GST-tagged reader, CW = CW-type Zn-finger, n of 4
  Array Heatmap signal, MORC3 (CW): 0.3968
CHD4 (PPCC); [33]
  Array Heatmap signal, CHD4 (PPCC): 0.5779
PHRF1 (RP); [32]
  Array Heatmap signal, PHRF1 (RP): 0.5307
BAZ2B; [32]
  Array Heatmap signal, BAZ2B: 0.4426
MLL5; [32]
  Array Heatmap signal, MLL5: 0.528
KDM5B (1); [32]
  Array Heatmap signal, KDM5B (1): 0.6708
RAG2; [32]
  Array Heatmap signal, RAG2: 0.2506
ING4; [32]
  Array Heatmap signal, ING4: 0.4561
KDM5A (3); [32]
  Array Heatmap signal, KDM5A (3): 0.4381
KDM5A (1); [32]
  Array Heatmap signal, KDM5A (1): 0.4479
PHF23; [32]
  Array Heatmap signal, PHF23: 0.5274
DPF2 (PPC2W2); histone peptide array, GST-tagged reader, PPC2W2 = Dual PHD + C2W2-type Zn-finger, n of 4
  Array Heatmap signal, DPF2 (PPC2W2): 0.6876
KDM7A; [32]
  Array Heatmap signal, KDM7A: 0.3276
ING1; [32]
  Array Heatmap signal, ING1: 0.5158
CHD5 (PPCC); [33]
  Array Heatmap signal, CHD5 (PPCC): 0.5427
PHF8; [32]
  Array Heatmap signal, PHF8: 0.3446
PHF2; [32]
  Array Heatmap signal, PHF2: 0.4794
KDM5B (3); [32]
  Array Heatmap signal, KDM5B (3): 0.458
ING5; [32]
  Array Heatmap signal, ING5: 0.3526
BPTF (PB); [34]
  Array Heatmap signal, BPTF (PB): 0.3511
PHF21A; [32]
  Array Heatmap signal, PHF21A: 0.4744
AIRE (PP); [32]
  Array Heatmap signal, AIRE (PP): 0.4377
DIDO1; [32]
  Array Heatmap signal, DIDO1: 0.6429
SP140L; [32]
  Array Heatmap signal, SP140L: 0.3819
ING3; [32]
  Array Heatmap signal, ING3: 0.4908
TAF3; [32]
  Array Heatmap signal, TAF3: 0.2583
TRIM66 (PB); [34]
  Array Heatmap signal, TRIM66 (PB): 0.5969
PHF13; [32]
  Array Heatmap signal, PHF13: 0.6132

## H3.3K27me2: H3.3 15-34 [Peptide H3.3K27me2]
CHD5 (PCC); [1]
  Array Heatmap signal, CHD5 (PCC): 0.8298
KDM4C (TTP); [2]
  Array Heatmap signal, KDM4C (TTP): 0.5464
ING2; [3]
  Array Heatmap signal, ING2: 0.5964
MORC3 (CW); [4]
  Array Heatmap signal, MORC3 (CW): 0.404
CHD4 (PPCC); [5]
  Array Heatmap signal, CHD4 (PPCC): 0.613
PHRF1 (RP); [6]
  Array Heatmap signal, PHRF1 (RP): 0.4654
BAZ2B; [7]
  Array Heatmap signal, BAZ2B: 0.4966
MLL5; [8]
  Array Heatmap signal, MLL5: 0.5397
KDM5B (1); [9]
  Array Heatmap signal, KDM5B (1): 0.6552
RAG2; [10]
  Array Heatmap signal, RAG2: 0.2646
ING4; [11]
  Array Heatmap signal, ING4: 0.4872
KDM5A (3); [12]
  Array Heatmap signal, KDM5A (3): 0.4717
KDM5A (1); [13]
  Array Heatmap signal, KDM5A (1): 0.5224
PHF23; [14]
  Array Heatmap signal, PHF23: 0.5513
DPF2 (PPC2W2); [15]
  Array Heatmap signal, DPF2 (PPC2W2): 0.6895
KDM7A; [16]
  Array Heatmap signal, KDM7A: 0.388
ING1; [17]
  Array Heatmap signal, ING1: 0.5537
CHD5 (PPCC); [18]
  Array Heatmap signal, CHD5 (PPCC): 0.607
PHF8; [19]
  Array Heatmap signal, PHF8: 0.3923
PHF2; [20]
  Array Heatmap signal, PHF2: 0.504
KDM5B (3); [21]
  Array Heatmap signal, KDM5B (3): 0.5196
ING5; [22]
  Array Heatmap signal, ING5: 0.3925
BPTF (PB); [23]
  Array Heatmap signal, BPTF (PB): 0.3599
PHF21A; [24]
  Array Heatmap signal, PHF21A: 0.5329
AIRE (PP); [25]
  Array Heatmap signal, AIRE (PP): 0.5737
DIDO1; [26]
  Array Heatmap signal, DIDO1: 0.6851
SP140L; [27]
  Array Heatmap signal, SP140L: 0.3774
ING3; [28]
  Array Heatmap signal, ING3: 0.5037
TAF3; [29]
  Array Heatmap signal, TAF3: 0.2764
TRIM66 (PB); [30]
  Array Heatmap signal, TRIM66 (PB): 0.5739
PHF13; [31]
  Array Heatmap signal, PHF13: 0.6291
